Source: PMC9234962, “Optimization of Peptide Linker-Based Fluorescent Ligands for the Histamine H1 Receptor” (Journal of Medicinal Chemistry, 2022)
Where two headings read alike, the source gives them in different places. Square brackets hold non-standard residues; d marks the D form. Peptide text beside a SMILES is read from it. * marks the point of attachment. X1 = O=C(COc1ccc(/C=C/C2=[N+]3C(=Cc4ccc(-c5cccs5)n4[B-]3(F)F)C=C2)cc1)*; Propanoyl(3-Pip(4-O-2-BnPh)) = O=C(CCN1CCC(Oc2ccccc2Cc2ccccc2)CC1)*; βAla = NCCC(=O)O

Experiments:
Nluc-H3R = target: T1, Nluc-H3R (Homo sapiens, UniProt Q9Y5N1); assay: NanoBRET saturation binding assay on Nluc-H3R HEK293T cell homogenates; settings: for binding at H3R in saturation assay (in words): concentrations of up to 1 μM; for Kd / Nluc-H3R pKD: cell homogenates, highest concentration 1 μM for 31a, 31k; for Nluc-H3R pKD: mean ± SEM, three experiments
T1 construct: expressed in transfected cells; host or cells: HEK293T, transient transfection; sonicated cell homogenates
T1 sequence (Q9Y5N1 whole entry): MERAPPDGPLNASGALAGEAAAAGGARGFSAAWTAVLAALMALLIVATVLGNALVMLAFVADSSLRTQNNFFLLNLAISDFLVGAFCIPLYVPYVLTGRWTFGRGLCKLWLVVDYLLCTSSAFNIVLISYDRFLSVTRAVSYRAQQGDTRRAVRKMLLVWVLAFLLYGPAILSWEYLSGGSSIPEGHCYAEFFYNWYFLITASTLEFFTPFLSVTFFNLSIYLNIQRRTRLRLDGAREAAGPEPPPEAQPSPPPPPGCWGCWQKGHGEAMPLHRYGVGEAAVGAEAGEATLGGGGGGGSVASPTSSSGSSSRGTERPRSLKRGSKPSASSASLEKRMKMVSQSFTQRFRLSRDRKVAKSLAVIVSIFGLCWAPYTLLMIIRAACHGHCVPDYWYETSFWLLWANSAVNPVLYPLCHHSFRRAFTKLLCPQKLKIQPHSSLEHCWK
Protocol: (§1) HEK293T cells were transiently transfected with 2.5 μg of cDNA encoding Nluc-H3R or Nluc-H4R and 2.5 μg of empty pcDEF3 vector using the polyethylenimine method as described previously in Mocking et al.[23] Two days after transfection, cells were collected in phosphate-buffered saline (PBS) and centrifuged at 1900g for 10 min and the cell pellet was stored at −20°C until the day of experiment. The pellet was resuspended in HBSS buffer, and cells were disrupted using a Branson sonifier 250 (Boom bv., Meppel, the Netherlands) prior to use in a NanoBRET binding assay.
For all NanoBRET binding experiments, 10 μM NanoGlo substrate (Promega) was added to each well after the incubation period and fluorescence and luminescence emissions were measured after 5 min.
(§2) Total and non-specific saturation binding curves from NanoBRET saturation binding assay were fitted simultaneously using eq 1: [drawing 4] 1 where Bmax is the maximal specific binding, [B] is the concentration of fluorescent ligand in nM, KD is the equilibrium dissociation constant in nM, M is the slope of the non-specific component, and C is the intercept with the Y axis.

Nluc-H4R [1] = target: T2, Nluc-H4R (Homo sapiens, UniProt Q9H3N8); assay: NanoBRET saturation binding assay on Nluc-H4R HEK293T cell homogenates; settings: for Kd / Nluc-H4R pKD: cell homogenates, highest concentration 1 μM for 31a, 31k; for Nluc-H4R pKD: mean ± SEM, three experiments; for binding at H4R in saturation assay (in words): concentrations of up to 1 μM
T2 construct: expressed in transfected cells; host or cells: HEK293T, transient transfection; sonicated cell homogenates
T2 sequence (Q9H3N8 whole entry): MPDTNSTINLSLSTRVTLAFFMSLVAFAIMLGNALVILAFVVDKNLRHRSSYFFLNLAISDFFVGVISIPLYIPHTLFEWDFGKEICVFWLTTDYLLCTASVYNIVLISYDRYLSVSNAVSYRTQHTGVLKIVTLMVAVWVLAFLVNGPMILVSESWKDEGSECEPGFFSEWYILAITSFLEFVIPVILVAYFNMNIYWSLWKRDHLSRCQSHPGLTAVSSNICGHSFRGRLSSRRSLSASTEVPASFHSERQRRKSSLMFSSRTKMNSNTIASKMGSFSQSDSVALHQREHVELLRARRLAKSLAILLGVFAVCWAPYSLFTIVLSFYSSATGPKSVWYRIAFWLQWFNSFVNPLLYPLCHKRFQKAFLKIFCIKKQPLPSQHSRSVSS
Protocol: as §1
For cell membrane NanoBRET saturation binding experiments, cell homogenates expressing the Nluc-H3R or Nluc-H4R were incubated with the required concentrations of fluorescent ligand in the absence and presence of 10 μM clobenpropit in HBSS for 2 h at 25 °C. For all NanoBRET binding experiments, 10 μM NanoGlo substrate (Promega) was added to each well after the incubation period and fluorescence and luminescence emissions were measured after 5 min.
as §2

Nluc-H4R [2] = target: T2, Nluc-H4R; parameters: method as in PMID 30249614; settings: literature value, cited from earlier work
H1R = settings: cited from earlier work
human H1R = target: T3, human H1R (Homo sapiens, UniProt P35367); assay: Ca2+ mobilization assay on human H1R-expressing CHO cells; assay type: cell-based; settings: Gaddum equation, shift in histamine EC25 with 1 μM antagonist
T3 construct: expressed in transfected cells; host or cells: CHO cells
T3 sequence (P35367 whole entry): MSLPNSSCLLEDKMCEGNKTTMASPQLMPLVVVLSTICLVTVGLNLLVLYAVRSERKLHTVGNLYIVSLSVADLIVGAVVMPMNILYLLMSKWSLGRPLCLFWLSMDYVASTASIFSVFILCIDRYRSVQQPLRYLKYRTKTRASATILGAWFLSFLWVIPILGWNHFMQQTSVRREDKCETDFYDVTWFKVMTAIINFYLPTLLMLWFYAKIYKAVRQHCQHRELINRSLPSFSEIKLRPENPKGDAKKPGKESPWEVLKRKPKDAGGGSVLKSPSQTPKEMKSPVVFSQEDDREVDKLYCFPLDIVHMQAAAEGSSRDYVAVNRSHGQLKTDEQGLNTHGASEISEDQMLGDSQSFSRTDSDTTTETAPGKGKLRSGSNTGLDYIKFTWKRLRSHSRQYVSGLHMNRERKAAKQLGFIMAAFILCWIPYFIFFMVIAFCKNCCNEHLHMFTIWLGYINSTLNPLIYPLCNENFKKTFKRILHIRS
Protocol: CHO cells expressing H1R were grown to confluence in black-walled, clear-bottom 96-well plates. On the day of the experiment, media were replaced with 100 μL of HBSS containing […], 2.3 μM Fluo-4AM (Invitrogen), 0.023% Pluronic F-127, 0.5 mM Brilliant Black BN, and 1 μM required fluorescent ligand and the plates incubated for 1 h at 37 °C in the dark. The plates were then placed in the multi-well fluorometric imaging plate reader FlexStation3 (Molecular Devices, Sunnyvale, CA) and HBSS only or HBSS containing the required concentration of histamine was added after 15 s. Fluo-4 fluorescence was measured at 520 nm (excitation at 485 nm) every 1.52 s for 200 s. For each well, the peak maximum–minimum–maximum change in fluorescence value was taken and plotted against concentration of histamine to give a dose–response curve.
Estimated affinity values (pKB) were calculated from the shift in agonist concentration–response curves in the presence of the fluorescent antagonists using the Gaddum equation (7): [drawing 10] 7 where DR (dose ratio) is the ratio of the agonist concentration required to stimulate an identical response in the presence and absence of antagonist, [B]. DR was determined from the EC25 value as there was a decrease in observed maximal efficacy of histamine in the presence of all 10 fluorescent antagonists.

YFP-tagged H1R = target: T4, YFP-tagged H1R (Homo sapiens, UniProt P35367); assay: confocal imaging of YFP-tagged H1R expressing CHO cells; assay type: cell-based; settings: 1, 5, 10, 25 nM, 30 min, 37 °C, ± 10 μM mepyramine
T4 construct: expressed in transfected cells; host or cells: CHO cells
T4 sequence (P35367 whole entry): as above
Protocol: H1R-YFP expressing CHO cells were grown to approximately 80% confluency on an 8-well Labtek chambered coverglass (Nunc Nalgene). On the day of experiment, the cells were washed two times with 200 μL of HBSS and subsequently incubated in the presence or absence of 10 μM mepyramine for 30 min at 37 °C in humidified air with 0% CO2. The required concentration of 31a was added to the wells and incubated for another 30 min at 37 °C. Images were acquired using a Zeiss LSM710 confocal microscope (Carl Zeiss GmbH, Hena, Germany) fitted with a 63× plan-Apochromat NA1.3 Ph3 oil-immersion lens. For YFP, a 488 nm argon laser was used for excitation and emission was detected using a BP505-30 filter. For fluorescent ligand 31a, a 633 nm helium-neon laser was used for excitation and emission was detected using a 650 nm long pass filter. A pinhole of 1 Airy Unit was used, and fixed laser power, gain, and offset for the BODIPY 630/650 containing compounds were kept constant across all experiments.

Nluc-H1R [3] = target: T5, Nluc-H1R (Homo sapiens, UniProt P35367); assay: NanoBRET saturation binding assay on Nluc-H1R expressing HEK293T cells; parameters: expressed in transfected cells; settings: saturation binding curves, whole HEK293T cells; for pKD: non-specific with 10 μM mepyramine, mean ± SEM
T5 sequence (P35367 whole entry): as above
Description: as §2

Nluc-H1R [4] = target: T5, Nluc-H1R; assay: NanoBRET association kinetics assay on Nluc-H1R HEK293T cells; assay type: binding; parameters: expressed in transfected cells; settings: for Kd: kinetic pKD, read-out: pKD determined from kon and koff (converted); for Kd / kon / MRT (mean residence time, 1/koff) / koff: mean ± SEM; for residence time: read-out: mean residence times (MRT); for kon / MRT (mean residence time, 1/koff) / koff: real-time NanoBRET; for kon: room temperature, 90 min
Protocol: For whole cell NanoBRET association kinetic experiments, 10 μM furimazine was added to each well and incubated at room temperature in the dark for 15 min to allow for stabilization of the luminescence signal. The required concentration of fluorescent ligand in the presence or absence of 10 μM of doxepin was added simultaneously, and the plates were read immediately with each well being read once per min for 90 min.
For the NanoBRET association kinetic experiments, the BRET ratio was determined for each concentration of fluorescent ligand at each time point in the presence or absence of 10 μM of doxepin. Specific binding was calculated by subtracting non-specific binding from total binding.

[5] = mean ± SEM, four experiments, read-out: pKB (converted)

Row | Compound | binding at H3R in saturation assay (in words) (Nluc-H3R) | Kd (Nluc-H4R [1]) [nM] | Nluc-H4R pKD (Nluc-H4R [1]) | binding at H4R in saturation assay (in words) (Nluc-H4R [1]) | Kb (human H1R; [5]) [nM] | Kb (human H1R; read-out: KB (converted)) [nM] | Kd (Nluc-H3R) [nM] | Nluc-H3R pKD (Nluc-H3R) | Kd (Nluc-H1R [3]) [nM] | pKD (Nluc-H1R [3]) | Kd (Nluc-H1R [4]) [nM] | residence time (Nluc-H1R [4]) [min] | kon (Nluc-H1R [4]) [M⁻¹ s⁻¹] | MRT (mean residence time, 1/koff) (Nluc-H1R [4]) [min] | koff (Nluc-H1R [4]) [s⁻¹] | other results
1 | NC(=NCc1ccc(Cl)cc1)SCCCc1cnc[nH]1 [CA200843, reference compound] | concentration-dependent, saturable and reversible binding | 31 | 7.51 ± 0.04 | concentration-dependent, saturable and reversible binding |  |  |  |  |  |  |  |  |  |  |  | pKD at Nluc-H4R reported in literature (Nluc-H4R [2]): 7.15; Kd (Nluc-H4R [2]; read-out: binding affinity at Nluc-H4R reported in literature): 70 nM
2 | C[C@@H](NC(=O)CCN1CCC(Oc2ccccc2Cc2ccccc2)CC1)C(=O)N[C@H](C)C(=O)N[C@H](C)C(=O)NCCNC(=O)CCCCCNC(=O)COc1ccc(/C=C/C2=[N+]3C(=Cc4ccc(-c5cccs5)n4[B-]3(F)F)C=C2)cc1 [Compound 1] |  |  |  |  |  |  |  |  |  |  |  |  |  |  |  | Radioligand binding assay (hH1R) pKi (H1R): 8.4 ± 0.1
3 | CC(C)[C@H](NC(=O)CCN1CCC(Oc2ccccc2Cc2ccccc2)CC1)C(=O)N[C@@H](CO)C(=O)N[C@@H](CC(N)=O)C(=O)NCCC(=O)N[C@@H](CCCCNC(=O)COc1ccc(/C=C/C2=[N+]3C(=Cc4ccc(-c5cccs5)n4[B-]3(F)F)C=C2)cc1)C(N)=O [Compound 31a, (S)-N1-(3-(((S)-1-Amino-6-(2-(4-((E)-2-(5,5-difluoro-7-(thiophen-2-yl)-5H-5λ^4,6λ^4-dipyrrolo[1,2-c:2’,1’-f][1,3,2]diazaborinin-3-yl)vinyl)phenoxy)acetamido)-1-oxohexan-2-yl)amino)-3-oxopropyl)-2-((S)-2-((S)-2-(3-(4-(2-benzylphenoxy)piperidin-1-yl)propanamido)-3-methylbutanamido)-3-hydroxypropanamido)succinamide] ({Propanoyl(3-Pip(4-O-2-BnPh))}-VSN[βAla]K(X1)-NH2) | little to no binding | < 1000 | < 6 | little to no binding | 2.75 | 3 | < 1000 | < 6 | 4 | 8.40 ± 0.08 | 17.8 | > 60 | 14000 | 75.6 ± 10.2 | 0.000233 | localization in confocal imaging (YFP-tagged H1R): localized to the plasma membrane of the cells with almost no intracellular uptake
4 | C[C@H](NC(=O)[C@H](C)NC(=O)[C@H](Cc1ccccc1)NC(=O)CCN1CCC(Oc2ccccc2Cc2ccccc2)CC1)C(=O)NCCC(=O)N[C@@H](CCCCNC(=O)COc1ccc(/C=C/C2=[N+]3C(=Cc4ccc(-c5cccs5)n4[B-]3(F)F)C=C2)cc1)C(N)=O [Compound 31k, (S)-2-((6S,9S,12S)-12-Benzyl-16-(4-(2-benzylphenoxy)piperidin-1-yl)-6,9-dimethyl-5,8,11,14-tetraoxo-4,7,10,13-tetraazahexadecanamido)-6-(2-(4-((E)-2-(5,5-difluoro-7-(thiophen-2-yl)-5H-5λ^4,6λ^4-dipyrr-olo[1,2-c:2’,1’-f][1,3,2]diazaborinin-3-yl)vinyl)phenoxy)acetamido)hexanamide] ({Propanoyl(3-Pip(4-O-2-BnPh))}-FAA[βAla]K(X1)-NH2) | little to no binding | < 1000 | < 6 | little to no binding | 2.57 | 3 | < 1000 | < 6 | 12 | 7.92 ± 0.08 | 22.9 | > 60 | 11400 | 78.8 ± 14.4 | 0.000233 | selectivity for H1R over H3R and H4R (Nluc-H3R; from NanoBRET saturation binding at H1R, H3R, H4R): approximately 100 fold
5 | c1ccc(Cc2ccccc2OC2CCNCC2)cc1 [VUF13816, 4-(2-Benzylphenoxy)piperidine] |  |  |  |  |  |  |  |  |  |  |  |  |  |  |  | radioligand binding assay pKi (H1R; H1R): 8.20
